In one assay the test system is HepG2 cells. Put plainly: F1P Cell-Based Assay (EC50), 13C6-fructose-1-phosphate in HepG2 cells (cell culture medium or 50% human plasma).
In the next assay the target is human KHK-C (Homo sapiens (Human), UniProt P50053). The assay can be described thus: KHK Biochemical Assay (IC50), ADP-Glo, KHK-C. The following applies: average of at least two separate assays. The gist of the method:
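His-tagged enzyme expressed in BL21 (DE3), Ni-NTA purified. Compounds, serially diluted 1:3 in DMSO, pre-incubated 30 min with enzyme in 50 mM Hepes pH 7.4, 140 mM KCl, 5 mM MgCl2, 0.01% Triton-X, then ATP and fructose added; 4 h at room temperature. ADP formation read by ADP-Glo luminescence.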

Setting [1] is: Homo sapiens, HepG2, HepG2 cells, 50% human plasma, read-out: F1P 50% HP EC50.
Where [2] appears, read: Homo sapiens, HepG2, read-out: F1P 10% FBS EC50, HepG2 cells, cell culture medium (10% FBS).
[3] abbreviates: HepG2 cells, 50% human plasma, read-out: F1P 50% HP EC50.
The mark [4] stands for this setting: read-out: F1P 10% FBS EC50, HepG2 cells, cell culture medium (10% FBS).

Usually EC50 stands for the concentration at which the effect is half-maximal. What is called IC50 is the concentration at which inhibition is half-maximal.

Read-outs that look alike come from different tables or passages of the source.

Sequence of human KHK-C (P50053 whole entry): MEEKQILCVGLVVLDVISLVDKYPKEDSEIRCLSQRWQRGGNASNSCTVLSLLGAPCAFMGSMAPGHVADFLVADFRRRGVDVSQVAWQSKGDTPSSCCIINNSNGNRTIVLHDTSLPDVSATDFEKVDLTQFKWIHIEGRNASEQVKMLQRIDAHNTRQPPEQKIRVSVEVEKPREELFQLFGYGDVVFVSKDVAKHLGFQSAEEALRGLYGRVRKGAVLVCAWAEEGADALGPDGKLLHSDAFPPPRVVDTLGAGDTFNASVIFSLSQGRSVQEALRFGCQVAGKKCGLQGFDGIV

Take `CCOc1ccc(-c2nc(N3C[C@@H](O)[C@@H]3C)nc3c2CCC3(F)F)cc1S(N)(=O)=O` [Example 764, 5-[7,7-difluoro-2-[(2S,3R)-3-hydroxy-2-methyl-azetidin-1-yl]-5,6-dihydrocyclopenta[d]pyrimidin-4-yl]-2-ethoxy-benzenesulfonamide]: the EC50 with HepG2 cells (setting [1]) is 22.1 nM; with HepG2 cells (setting [2]), 8.9 nM. Also, the IC50 at human KHK-C is 5.5 nM.
For the molecule `COc1cc(-c2nc(N3C[C@@H](O)[C@@H]3C)nc3c2CCC3(F)F)cc2c1[C@@H](NS(C)(=O)=O)CO2` [Example 530], the EC50 was 142 nM with HepG2 cells (setting [3]) and 29.7 nM with HepG2 cells (setting [4]). Moreover, on human KHK-C, 1.5 nM corresponded to half-maximal inhibition (IC50).
As for `COC(=O)NC1COc2cc(-c3nc(N4C[C@@H](O)[C@@H]4C)nc4c3CCC4(F)F)cc(F)c21` (stereo partly drawn) [Example 811, methyl (6-(7,7-difluoro-2-((2S,3R)-3-hydroxy-2-methylazetidin-1-yl)-6,7-dihydro-5H-cyclopenta[d]pyrimidin-4-yl)-4-fluoro-2,3-dihydrobenzofuran-3-yl)carbamate], the EC50 in the assay on HepG2 cells (setting [1]) is 343 nM; in the assay on HepG2 cells (setting [2]) it was 127 nM. The molecule further displayed an IC50 at human KHK-C (ADP-Glo) of 5.2 nM.
In the case of `NC1(c2ccc(-c3nc(N4CC(F)(F)[C@H]4CO)nc4c3CCC4(F)F)cc2)CS(=O)(=O)C1` (single isomer, unassigned) [Example 783], the EC50 in the assay with HepG2 cells (setting [1]) and with HepG2 cells (setting [2]) was more than 500 nM throughout. At human KHK-C, this molecule showed an IC50 of 98.7 nM.
Regarding `C[C@H]1[C@H](O)CN1c1nc(-c2cccc(N=S3(=O)CCNCC3)c2)c2c(n1)C(F)(F)CC2` [Example 672, (2S,3R)-1-[7,7-difluoro-4-[3-[(1-oxo-1,4-thiazinan-1-ylidene)amino]phenyl]-5,6-dihydroeyelopenta[d]pyrimidin-2-yl]-2-methyl-azetidin-3-ol], the figures for the EC50 with HepG2 cells (setting [1]) and with HepG2 cells (setting [2]) were 105 nM and 56.2 nM, respectively. For the same molecule, it took 33.2 nM to reach half-maximal inhibition on human KHK-C (IC50).
For `CNC1(c2ccc(-c3nc(N4C[C@@H](F)[C@@H]4C)nc4c3CCC4(F)F)cc2)CS(=O)(=O)C1` [Example 770, 3-(4-(7,7-difluoro-2-((2S,3R)-3-fluoro-2-methylazetidin-1-yl)-6,7-dihydro-5H-cyclopenta[d]pyrimidin-4-yl)phenyl)-3-(methylamino)thietane 1,1-dioxide], in that order: 156 nM, 44.3 nM and 5.7 nM.
For the molecule `C[C@@H]1N(c2nc(-c3ccc4c(c3)CCNC43COC3)c3c(n2)C(F)(F)CC3)CC1(F)F` [Example 519, (S)-6-(2-(3,3-difluoro-2-methylazetidin-1-yl)-7,7-difluoro-6,7-dihydro-5H-cyclopenta[d]pyrimidin-4-yl)-3,4-dihydro-2H-spiro[isoquinoline-1,3′-oxetane]], the EC50 with HepG2 cells (setting [1]) worked out at 23 nM; in the assay with HepG2 cells (setting [2]), 10.1 nM. For the same molecule, on human KHK-C, the midpoint of inhibition, the IC50, lay at 2.2 nM.
The like results for `C[C@H]1[C@H](O)CN1c1nc(-c2ccc3c(c2)O[C@H](CF)CNC3=O)c2c(n1)C(F)(F)CC2` (single isomer, unassigned) [Example 596] were, in that order, 13.6 nM, 12.2 nM and 2 nM.
For `COc1cc(-c2nc(N3C[C@@H](O)[C@@H]3C)nc3c2CCC3(F)F)cc2c1C(NS(C)(=O)=O)CO2` (stereo partly drawn) [Example 477, N-(6-(7,7-difluoro-2-((2S,3R)-3-hydroxy-2-methylazetidin-1-yl)-6,7-dihydro-5H-cyclopenta[d]pyrimidin-4-yl)-4-methoxy-2,3-dihydrobenzofuran-3-yl)methanesulfonamide], in that order: 25.9 nM, 6 nM and 0.4 nM.
As to `C[C@H]1CCN1c1nc2c(c(-c3cccc(S(=N)(=O)C(F)F)c3)n1)CCC2` (stereo partly drawn) [Example 602, (difluoromethyl)(imino)(3-(2-((S)-2-methylazetidin-1-yl)-6,7-dihydro-5H-cyclopenta[d]pyrimidin-4-yl)phenyl)-λ^6-sulfanone], the values for the EC50 with HepG2 cells (setting [1]) and in the assay on HepG2 cells (setting [2]) were more than 500 nM and 92.9 nM, respectively. The same molecule showed an IC50 on human KHK-C of 59.7 nM.
The like results for `C[C@H]1CCN1c1nc(-c2cc3c(c(CNS(C)(=O)=O)c2)OCC3)c2c(n1)C(F)(F)CC2` [Example 762, N-[[5-[7,7-difluoro-2-[(2S)-2-methylazetidin-1-yl]-5,6-dihydrocyclopenta[d]pyrimidin-4-yl]-2,3-dihydrobenzofuran-7-yl]methyl]methanesulfonamide] were, in that order, 159 nM, 11.4 nM and 2 nM.
With `C[C@H]1[C@H](O)CN1c1nc(-c2ccc3c(c2)C(F)(F)CNC3)c2c(n1)C(F)(F)CC2` [Example 807, (2S,3R)-1-[4-(4,4-difluoro-2,3-dihydro-1H-isoquinolin-6-yl)-7,7-difluoro-5,6-dihydrocyclopenta[d]pyrimidin-2-yl]-2-methyl-azetidin-3-ol], the values for the EC50 in the assay on HepG2 cells (setting [1]) and in the assay on HepG2 cells (setting [2]) were 99.4 nM and 35.2 nM, respectively. Further, on human KHK-C (ADP-Glo), the IC50 was 15.7 nM.
As for `C[C@H]1CCN1c1nc(-c2cccc(N=S3(=O)CCCC3)c2)c2c(n1)C(F)(F)CC2` [Example 669, 1-[3-[7,7-difluoro-2-[(2S)-2-methylazetidin-1-yl]-5,6-dihydrocyclopenta[d]pyrimidin-4-yl]phenyl]iminothiolane 1-oxide], the concentration for a half-maximal effect (EC50) in the assay on HepG2 cells (setting [1]) was 429 nM; in the assay on HepG2 cells (setting [2]), 28.6 nM. At human KHK-C, this molecule returned an IC50 of 16.2 nM.
The like results for `C[C@H]1[C@@H](F)CN1c1nc(-c2ccc(C3(N)CS(=O)(=O)C3)cc2)c2c(n1)C(F)(F)CC2` [Example 785] were, in that order, 23.7 nM, 15.2 nM and 0.7 nM.
For `C[C@H]1[C@H](O)CN1c1nc(-c2cccc([C@H]3CCS(=O)(=O)N3)c2)c2c(n1)C(F)(F)CC2` [Example 617], the EC50 came to 30.7 nM in the assay on HepG2 cells (setting [3]) and 10.2 nM in the assay with HepG2 cells (setting [4]). Moreover, at human KHK-C, 3.5 nM corresponded to half-maximal inhibition (IC50).
In the case of `C[C@H]1[C@H](O)CN1c1nc(-c2ccc3c(c2)OC[C@@H]3NS(=O)(=O)CC#N)c2c(n1)C(F)(F)CC2` [Example 627, 1-cyano-N-((R)-6-(7,7-difluoro-2-((2S,3R)-3-hydroxy-2-methylazetidin-1-yl)-6,7-dihydro-5H-cyclopenta[d]pyrimidin-4-yl)-2,3-dihydrobenzofuran-3-yl)methanesulfonamide], the half-maximal effective concentration (EC50) with HepG2 cells (setting [1]) came to 4.1 nM; with HepG2 cells (setting [2]), 4.5 nM. In addition, the midpoint of inhibition against human KHK-C, the IC50, lay at 6 nM.
In the case of `CN=S(C)(=O)c1cccc(-c2nc(N3C[C@@H](O)[C@@H]3C)nc3c2CCC3(F)F)c1` (stereo partly drawn) [Example 508, (3-(7,7-difluoro-2-((2S,3R)-3-hydroxy-2-methylazetidin-1-yl)-6,7-dihydro-5H-cyclopenta[d]pyrimidin-4-yl)phenyl)(methyl)(methylimino)-λ^6-sulfanone], the EC50 came out at 254 nM in the assay with HepG2 cells (setting [1]) and 126 nM with HepG2 cells (setting [2]). Moreover, the IC50 against human KHK-C worked out at 61.2 nM.
The like results for `C[C@H]1[C@H](O)CN1c1nc(-c2ccc3c(c2)O[C@@H](CF)CNC3=O)c2c(n1)C(F)(F)CC2` (single isomer, unassigned) [Example 595] were, in that order, 51 nM, 34.9 nM and 4.4 nM.
For `C[C@H]1[C@H](O)CN1c1nc(-c2cc(F)cc(S(C)(=N)=O)c2)c2c(n1)C(F)(F)CC2` (stereo partly drawn) [Example 724], the 50% effective concentration (EC50) was found to be 166 nM with HepG2 cells (Homo sapiens, HepG2, read-out: F1P 10% FBS EC50) and 234 nM in the assay with HepG2 cells (Homo sapiens, HepG2, read-out: F1P 50% HP EC50). Further, at human KHK-C, the 50% inhibitory concentration (IC50) was found to be 25.4 nM.
With `CCS(=N)(=O)c1cccc(-c2nc(N3C[C@@H](O)[C@@H]3C)nc3c2CCC3(F)F)c1` (stereo partly drawn) [Example 511, (3-(7,7-difluoro-2-((2S,3R)-3-hydroxy-2-methylazetidin-1-yl)-6,7-dihydro-5H-cyclopenta[d]pyrimidin-4-yl)phenyl)(ethyl)(imino)-λ^6-sulfanone], the values for the EC50 with HepG2 cells (setting [1]) and in the assay with HepG2 cells (setting [2]) were 46.1 nM and 34.6 nM, respectively. At human KHK-C, this molecule came in with an IC50 of 20.9 nM.
For `C[C@H]1[C@H](O)CN1c1nc(-c2ccc3c(c2)CCC32COC(=O)N2)c2c(n1)C(F)(F)CC2` (stereo partly drawn) [Example 474, 5-(7,7-difluoro-2-((2S,3R)-3-hydroxy-2-methylazetidin-1-yl)-6,7-dihydro-5H-cyclopenta[d]pyrimidin-4-yl)-2,3-dihydrospiro[indene-1,4′-oxazolidin]-2′-one], in that order: 45.1 nM, 22.5 nM and 1 nM.
For `C[C@H]1[C@H](O)CN1c1nc(-c2ccc3c(c2)CC[C@]32COC(=O)N2)c2c(n1)C(F)(F)CC2` (single isomer, unassigned) [Example 475], in that order: 207 nM, 104 nM and 15 nM.
The like results for `C[C@H]1[C@H](O)CN1c1nc(-c2cc(F)c3c(c2)CC[C@@H]3NS(C)(=O)=O)c2c(n1)C(F)(F)CC2` (single isomer, unassigned) [Example 526] were, in that order, 114 nM, 30.8 nM and 4.9 nM.
As for `C[C@H]1[C@H](O)CN1c1nc(-c2ccc([C@@H](N)CC#N)cc2)c2c(n1)C(F)(F)CC2` (single isomer, unassigned) [Example 779], the results for the EC50 with HepG2 cells (setting [1]) and in the assay with HepG2 cells (setting [2]) were 37.7 nM and 47.5 nM, respectively. For the same molecule, half-maximal inhibition against human KHK-C (IC50) required 7.1 nM.
The like results for `C[C@H]1[C@H](O)CN1c1nc(-c2ccc3c(c2)OC(CF)CNC3=O)c2c(n1)C(F)(F)CC2` (stereo partly drawn) [Example 594, 8-(7,7-difluoro-2-((2S,3R)-3-hydroxy-2-methylazetidin-1-yl)-6,7-dihydro-5H-cyclopenta[d]pyrimidin-4-yl)-2-(fluoromethyl)-3,4-dihydrobenzo[f][1,4]oxazepin-5(2H)-one] were, in that order, 21 nM, 12.6 nM and 3.3 nM.

Values taken from US12410160B2 (Gilead Sciences, Inc., priority 2021, dated 2025).
